Laboratory results as given in ChEMBL document CHEMBL1201862, “PubChem BioAssay data set” (2004).
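All cell lines were grown in 96-well plates and treated with compound for 48 hours. Here, GI50 denotes the concentration required for 50% inhibition of growth.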 The source made the active and inactive calls. Rule as the data show it: active = GI50 up to about 1.1 µM and inactive = higher.

Key:
Assay in all cases: inhibition of tumour cell growth, NCI panel, 48 h
A498 = test system: A498
HT-29 = test system: HT-29
SF-539 = test system: SF-539
HOP-62 = test system: HOP-62
HL-60 = test system: HL-60
OVCAR-5 = test system: OVCAR-5
HOP-92 = test system: HOP-92
OVCAR-3 = test system: OVCAR-3
UACC-257 = test system: UACC-257
SK-MEL-5 = test system: SK-MEL-5
CCRF-CEM = test system: CCRF-CEM
EKVX = test system: EKVX
IGROV-1 = test system: IGROV-1
LOX IMVI = test system: LOX IMVI
UO-31 = test system: UO-31
CAKI-1 = test system: CAKI-1
NCI-H522 = test system: NCI-H522
ACHN = test system: ACHN
COLO 205 = test system: COLO 205
SK-MEL-2 = test system: SK-MEL-2

Measured: GI50

N=C(NNS(=O)(=O)c1ccccc1)Oc1ccc(Cl)cc1
inactive: A498 > 100 µM | HT-29 > 100 µM | SF-539 > 100 µM | HOP-62 > 100 µM | HL-60 21.1 µM | OVCAR-5 > 100 µM | HOP-92 > 100 µM | OVCAR-3 78.5 µM | UACC-257 > 100 µM | SK-MEL-5 > 100 µM | CCRF-CEM 38.3 µM | EKVX > 100 µM | IGROV-1 > 100 µM | LOX IMVI 48.3 µM | UO-31 > 100 µM | CAKI-1 > 100 µM | NCI-H522 > 100 µM | ACHN > 100 µM | COLO 205 35.4 µM | SK-MEL-2 > 100 µM
